“And” between values parts separate entries of the source, which are not always exact repeats. Equal values may be shown once. Inconclusive results and toxic doses are left out. No stated cut-off is given here; in the data, active means T/C of 150% or more; inactive means T/C below 125%. Square brackets hold non-standard residues; d marks the D form. Peptide text beside a SMILES is read from it. ξ: configuration not given here. ξV = CC(C)C(N)C(=O)O
System: L1210 leukemia ip in BDF1 mice, survival T/C
Assay: NCI In Vivo Anticancer Drug Screen. Data for tumor model L1210 Leukemia (intraperitoneal) in B6D2F1 (BDF1) mice
Settings: endpoint: mean survival time, higher = longer survival
Method in brief: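 Tumor was transplanted into mice, which were then dosed with test compound or vehicle alone. Survival was recorded for each group, and the treated figure was expressed relative to the control figure.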

[1] = dose: 100.0 mg/kg/injection, schedule: Q04DX003 (ip), vehicle: saline
[2] = dose: 100.0 mg/kg/injection, schedule: Q01DX009 (ip), vehicle: saline
[3] = dose: 200.0 mg/kg/injection, schedule: Q01DX009 (ip), vehicle: saline
[4] = dose: 200.0 mg/kg/injection, schedule: Q04DX003 (ip), vehicle: saline
[5] = dose: 100.0 mg/kg/injection, schedule: Q01DX001 (ip), vehicle: saline
[6] = dose: 200.0 mg/kg/injection, schedule: Q01DX001 (ip), vehicle: saline
[7] = dose: 400.0 mg/kg/injection, schedule: Q01DX001 (ip), vehicle: saline
[8] = dose: 100.0 mg/kg/injection, schedule: Q01DX009 (ip), vehicle: Klucel (hydroxypropylcellulose) (HPC)
[9] = dose: 200.0 mg/kg/injection, schedule: Q01DX009 (ip), vehicle: Klucel (hydroxypropylcellulose) (HPC)
[10] = dose: 400.0 mg/kg/injection, schedule: Q01DX009 (ip), vehicle: Klucel (hydroxypropylcellulose) (HPC)
[11] = dose: 50.0 mg/kg/injection, schedule: Q01DX009 (ip), vehicle: saline

Measured: T/C

CSc1nn[nH]n1
inactive: dose: 25.0 mg/kg/injection, schedule: Q01DX009 (ip), vehicle: acetone 93 % of control | dose: 50.0 mg/kg/injection, schedule: Q01DX009 (ip), vehicle: acetone 96 % of control | dose: 50.0 mg/kg/injection, schedule: Q04DX003 (ip), vehicle: saline 92 % of control | dose: 100.0 mg/kg/injection, schedule: Q01DX001 (ip), vehicle: acetone 98 % of control | dose: 100.0 mg/kg/injection, schedule: Q01DX009 (ip), vehicle: acetone 91 % of control | [1] 97 % of control | dose: 200.0 mg/kg/injection, schedule: Q01DX001 (ip), vehicle: acetone 93 % of control

O=C(CC(O)(C(F)(F)F)C(F)(F)F)c1ccc(C(=O)CC(O)(C(F)(F)F)C(F)(F)F)cc1
inactive: dose: 50.0 mg/kg/injection, schedule: Q01DX009 (ip), vehicle: other 108 % of control | dose: 100.0 mg/kg/injection, schedule: Q01DX009 (ip), vehicle: other 97 % of control

CC12CC3CC(C)(C1)CC(CN=C(N)CCl)(C3)C2
inactive: dose: 6.25 mg/kg/injection, schedule: Q01DX009 (ip), vehicle: Klucel (hydroxypropylcellulose) (HPC) 106 % of control | dose: 12.5 mg/kg/injection, schedule: Q01DX009 (ip), vehicle: Klucel (hydroxypropylcellulose) (HPC) 100 % of control | dose: 12.5 mg/kg/injection, schedule: Q04DX002 (ip), vehicle: Klucel (hydroxypropylcellulose) (HPC) 96 % of control | dose: 25.0 mg/kg/injection, schedule: Q04DX002 (ip), vehicle: Klucel (hydroxypropylcellulose) (HPC) 96 % of control

CCCCCCCCCCCCCCCC(=O)N(CCCN)C(C)CCCN(CC)CC (configuration not stated)
inactive: dose: 25.0 mg/kg/injection, schedule: Q01DX009 (ip), vehicle: saline with Tween-80 93 % of control | dose: 50.0 mg/kg/injection, schedule: Q01DX009 (ip), vehicle: saline with Tween-80 86 % of control | dose: 100.0 mg/kg/injection, schedule: Q01DX009 (ip), vehicle: saline with Tween-80 102 % of control | dose: 100.0 mg/kg/injection, schedule: Q04DX003 (ip), vehicle: saline with Tween-80 97 % of control | dose: 200.0 mg/kg/injection, schedule: Q04DX003 (ip), vehicle: saline with Tween-80 103 % of control | dose: 400.0 mg/kg/injection, schedule: Q04DX003 (ip), vehicle: saline with Tween-80 100 % of control

CC(C)C(NC(=O)CNC(=O)CN)C(=O)O (stereo not drawn) (H-Gly-Gly-[ξV]-OH)
inactive: [2] 104 % of control | [1] 106 % of control | [3] 102 % of control | [4] 103 % of control | dose: 400.0 mg/kg/injection, schedule: Q01DX009 (ip), vehicle: saline 102 % of control | dose: 400.0 mg/kg/injection, schedule: Q04DX003 (ip), vehicle: saline 106 % of control

NC1=NN(c2c(Cl)cc(Cl)cc2Cl)C(=O)C1
inactive: [5] 96 % of control | [6] 94 % of control | [7] 100 % of control

CSc1ccc(NC(=O)c2ccc(C(=O)Nc3ccc(SC)cc3)cc2)cc1
inactive: [8] 94 % of control | [9] 89 % of control | [10] 89 % of control

CC(=O)Nc1nc(-c2ccccc2)c(CCC=O)c(=O)[nH]1
inactive: dose: 50.0 mg/kg/injection, schedule: Q01DX001 (ip), vehicle: Klucel (hydroxypropylcellulose) (HPC) 93 % of control | dose: 100.0 mg/kg/injection, schedule: Q01DX001 (ip), vehicle: Klucel (hydroxypropylcellulose) (HPC) 96 % of control | dose: 200.0 mg/kg/injection, schedule: Q01DX001 (ip), vehicle: Klucel (hydroxypropylcellulose) (HPC) 104 % of control

NN1N=Nc2cccc3cccc1c23
inactive: [11] 96 % of control | [2] 107 % of control | [1] 92 % of control | [3] 88 % of control | [4] 91 % of control

COc1cc([N+](=O)[O-])ccc1NC(=O)Oc1ccc2ccccc2c1
inactive: [8] 98 % of control | [9] 96 % of control | [10] 100 % of control

CCCCC(CCN(C)C)(CNC(=O)CN(CC)CC)c1cccc2ccccc12 (configuration not stated)
inactive: dose: 25.0 mg/kg/injection, schedule: Q01DX009 (ip), vehicle: saline 91 % of control | [11] 91 % of control | [2] 90 % of control | [1] 100 % of control

CC1(N=C(N)CSSCC(N)=NC2(C)CCC(C(C)(C)C)CC2)CCC(C(C)(C)C)CC1 (configuration not stated)
inactive: dose: 0.7 mg/kg/injection, schedule: Q01DX009 (ip), vehicle: other 93 % of control and 96 % of control | dose: 1.0 mg/kg/injection, schedule: Q01DX001 (ip), vehicle: other 107 % of control | dose: 1.0 mg/kg/injection, schedule: Q01DX009 (ip), vehicle: other 101 % of control and 103 % of control | dose: 1.56 mg/kg/injection, schedule: Q01DX009 (ip), vehicle: other 97 % of control and 101 % of control | dose: 2.0 mg/kg/injection, schedule: Q01DX001 (ip), vehicle: other 105 % of control | dose: 2.35 mg/kg/injection, schedule: Q01DX009 (ip), vehicle: other 105 % of control and 90 % of control | dose: 3.12 mg/kg/injection, schedule: Q01DX009 (ip), vehicle: carboxymethylcellulose (CMC) 112 % of control | dose: 4.0 mg/kg/injection, schedule: Q01DX001 (ip), vehicle: other 111 % of control | dose: 5.0 mg/kg/injection, schedule: Q04DX003 (ip), vehicle: other 95 % of control | dose: 6.25 mg/kg/injection, schedule: Q01DX009 (ip), vehicle: carboxymethylcellulose (CMC) 102 % of control | dose: 6.25 mg/kg/injection, schedule: Q01DX009 (ip), vehicle: other 98 % of control | dose: 10.0 mg/kg/injection, schedule: Q04DX003 (ip), vehicle: other 105 % of control | dose: 12.5 mg/kg/injection, schedule: Q01DX009 (ip), vehicle: other 102 % of control | dose: 12.5 mg/kg/injection, schedule: Q04DX002 (ip), vehicle: other 104 % of control and 90 % of control | dose: 25.0 mg/kg/injection, schedule: Q04DX002 (ip), vehicle: carboxymethylcellulose (CMC) 102 % of control and 112 % of control

COc1ccc(OC)c(/C=N\NC(=O)c2ccccc2N(C)C)c1
inactive: dose: 100.0 mg/kg/injection, schedule: Q04DX002 (ip), vehicle: gum acacia 100 % of control | dose: 200.0 mg/kg/injection, schedule: Q04DX002 (ip), vehicle: gum acacia 90 % of control | dose: 400.0 mg/kg/injection, schedule: Q04DX002 (ip), vehicle: gum acacia 103 % of control

Cc1ccc(CN(CC(=O)O)N=O)cc1
inactive: dose: 100.0 mg/kg/injection, schedule: Q01DX Z (ip), vehicle: saline 107 % of control | dose: 200.0 mg/kg/injection, schedule: Q01DX Z (ip), vehicle: saline 100 % of control

Cn1c(N)c(N=Nc2ccc(S(=O)(=O)Nc3ccccn3)cc2)c(=O)n(C)c1=O
inactive: dose: 100.0 mg/kg/injection, schedule: Q01DX001 (ip), vehicle: carboxymethylcellulose (CMC) 98 % of control | dose: 200.0 mg/kg/injection, schedule: Q01DX001 (ip), vehicle: carboxymethylcellulose (CMC) 93 % of control | dose: 400.0 mg/kg/injection, schedule: Q01DX001 (ip), vehicle: carboxymethylcellulose (CMC) 93 % of control

CCCCCCCCCCCCCCCC(C1CCCC1)C1CCCC1
inactive: dose: 75.0 mg/kg/injection, schedule: Q01DX001 (ip), vehicle: saline with Tween-80 99 % of control | dose: 150.0 mg/kg/injection, schedule: Q01DX001 (ip), vehicle: saline with Tween-80 97 % of control | dose: 300.0 mg/kg/injection, schedule: Q01DX001 (ip), vehicle: saline with Tween-80 101 % of control

O=C1NS(=O)(=O)CS(=O)(=O)N1
inactive: [5] 108 % of control | [6] 104 % of control | [7] 101 % of control

Oc1ccccc1CNCc1ccccc1O
inactive: dose: 75.0 mg/kg/injection, schedule: Q01DX001 (ip), vehicle: saline 96 % of control | dose: 150.0 mg/kg/injection, schedule: Q01DX001 (ip), vehicle: saline 96 % of control
